What all share (test): growth of human tumour cells (NCI), 48 h
The subject of test [1] is COLO 205.
The subject of test [2] is DU-145.
The subject of test [3] is HCC 2998.
Test [4] concerns HCT-15.
Test [5] relates to HOP-92.
The test system of test [6] is HT-29.
The test system of test [7] is Hs-578T.
For test [8], the system named is K562.
Test [9] concerns MDA-MB-231.
Test [10] deals with MDA-N.
Test [11] has as its system MOLT-4.
Test [12] concerns NCI-H23.
Test [13] has as its system NCI/ADR-RES.
Test [14] relates to OVCAR-4.
In test [15] the test system is OVCAR-5.
For test [16], the system named is PC-3.
The subject of test [17] is SF-295.
For test [18], the system named is SNB-75.
For test [19], the system named is UACC-257.
The subject of test [20] is UACC-62.

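How tested: cells in 96-well plates exposed to compound for 48 hours at five concentrations. At the GI50, growth is halved.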 The source made the active and inactive calls. Rule as the data show it: active = GI50 up to about 1.1 µM and inactive = higher. Positions of bridges follow the written chain, without caps; N, C: chain ends. Non-standard residues stand in square brackets, D forms with d. Residues, ends and D or L forms follow the SMILES beside them. ξ: configuration not given here. *: point of attachment. X28 = O=C(/C=C/C=C/C=C/C=C/C=C/C(=O)*)NC1=C(O)CCC1=O; Pro(4R-Me) = C[C@H]1CN[C@H](C(=O)O)C1; NMeA = CN[C@@H](C)C(=O)O; ξF = NC(Cc1ccccc1)C(=O)O; ξA = CC(N)C(=O)O Bounds are passed on as bounds.

Turning to `COC(=O)c1ccccc1C1CN=NC12Cc1ccc(C)c(C)c1C2=O` (stereo not drawn), the GI50 in [1] is 53.7 µM (inactive); in test [2], > 100 µM (inactive); in [3] it was 68.9 µM (inactive); in test [4], 33.9 µM; in [5] it was 28.2 µM (inactive); in test [6], 27.2 µM (inactive). For the same compound, the GI50 in [7] is > 100 µM (inactive); in test [8], 28.9 µM (inactive); in [9], 40.2 µM (inactive); in test [10], 77.4 µM (inactive); in test [11], 26.1 µM (inactive); in test [12] it was 19.1 µM (inactive). Besides, the GI50 is 21.9 µM (inactive) in test [13]; 31.6 µM (inactive) in [14]; > 100 µM (inactive) in test [15]; 50.8 µM (inactive) in [16]; 46.5 µM (inactive) in test [17]; 61.2 µM (inactive) in test [18]. Moreover, the GI50 in [19] was 25.8 µM (inactive); in test [20], 74 µM (inactive).
`CC1C(c2ccccc2)NC(c2ccccc2)CC1(N)C#N` (stereo not drawn): the GI50 in test [1] was 43.4 µM (inactive); in test [2], > 100 µM (inactive); in [3], > 100 µM (inactive); in [4], over 100 µM; in test [5], 95.1 µM (inactive); in test [6] it was 63.1 µM (inactive). In addition, the GI50 in [7], in [8], in [9], in test [10], in test [11] and in [12] was > 100 µM (inactive) throughout. The GI50 in [13], in [14], in [15], in test [16], in test [17] and in test [18] was > 100 µM (inactive) each time. Also, the values for the GI50 in test [19] and in test [20] were 48 µM (inactive) and 90.6 µM (inactive), respectively.
As to `O=C1CSC(=S)N1/N=C/c1ccc(Cl)c([N+](=O)[O-])c1`, the GI50 in test [1] was 43.7 µM (inactive); in test [2], 36.6 µM (inactive); in test [3] it was 11.9 µM (inactive); in test [4], 20.2 µM; in [5], 27.6 µM (inactive); in [6], 39.6 µM (inactive). Also, the GI50 in test [7] was 37.8 µM (inactive); in test [8], 38.3 µM (inactive); in test [9] it was 21.3 µM (inactive); in test [10], 22.4 µM (inactive); in test [11], 31.1 µM (inactive); in test [12], 17.9 µM (inactive). The GI50 in test [13] is 22.6 µM (inactive); in test [14], 22.5 µM (inactive); in test [15], > 100 µM (inactive); in [16], 24.6 µM (inactive); in test [17], 24.8 µM (inactive); in test [18], 45 µM (inactive). Further, the GI50 in test [19] is 23.8 µM (inactive); in [20], 25.9 µM (inactive).
On to `COC1=C(Cl)C(=O)c2c(O)ccc(O)c2C1=O`, for which the GI50 in test [1] is 0.212 µM (active); in [2], 2.38 µM (inactive); in [3] it was 13 µM (inactive); in [4], 1.34 µM; in [5] it was 1.78 µM (inactive); in test [6] it was 3.15 µM (inactive). In addition, the GI50 in test [7] was 1.11 µM (active); in test [8], 0.826 µM (active); in test [9] it was 1.66 µM (inactive); in [10] it was 2.2 µM (inactive); in test [11] it was 0.0372 µM (active); in test [12], 1.91 µM (inactive). In addition, the GI50 in [13] was 0.843 µM (active); in test [14], 2.07 µM (inactive); in [15], 3.01 µM (inactive); in [16], 3.07 µM (inactive); in [17], 6.43 µM (inactive); in test [18] it was 4.88 µM (inactive). The GI50 in [19] was 1.77 µM (inactive); in test [20], 1.07 µM (active).
`CN(C)[C@@H]1C(O)=C(C(=O)NCNc2nc3[nH]nnc3c(=O)[nH]2)C(=O)[C@@]2(O)C(O)=C3C(=O)c4c(O)cccc4[C@@](C)(O)[C@H]3C[C@@H]12`: the GI50 is 23.6 µM (inactive) in [1]; 1.27 µM (inactive) in test [2]; 64 µM (inactive) in test [3]; 42.5 µM in test [4]; 1.3 µM (inactive) in [5]; 43.7 µM (inactive) in [6]. Besides, the GI50 in test [7] is 2 µM (inactive); in [8] it was 0.402 µM (active); in test [9], 0.883 µM (active); in [10], 0.393 µM (active); in [11] it was 0.288 µM (active); in test [12], 35.3 µM (inactive). In addition, the GI50 in test [13] was 2.37 µM (inactive); in test [14] it was 8.63 µM (inactive); in test [15], 33.5 µM (inactive); in test [16] it was 3.42 µM (inactive); in [17], 4.47 µM (inactive); in test [18], 11.2 µM (inactive). Also, the GI50 was 1.28 µM (inactive) in test [19] and 0.346 µM (active) in [20].
`COP(=O)(OC)C1=c2c(C)noc2=C2C=COC2C1=O` (stereo not drawn): the GI50 was > 100 µM (inactive) in test [1]; > 100 µM (inactive) in test [2]; > 100 µM (inactive) in test [3]; over 100 µM in test [4]; 63.4 µM (inactive) in test [5]; > 100 µM (inactive) in [6]. For the same compound, the GI50 in test [7] is 45.9 µM (inactive); in test [8] it was > 100 µM (inactive); in test [9] it was 56.1 µM (inactive); in test [10], > 100 µM (inactive); in test [11] it was > 100 µM (inactive); in test [12], > 100 µM (inactive). Also, the GI50 in test [13] was > 100 µM (inactive); in test [14], > 100 µM (inactive); in test [15], > 100 µM (inactive); in test [16], > 100 µM (inactive); in test [17], > 100 µM (inactive); in test [18], 94.6 µM (inactive). For the same compound, the GI50 in test [19] and in test [20] was > 100 µM (inactive) each time.
Turning to `CC1NC(=O)[C@H](C)N(C)C(=O)[C@@H]2CCCN2C(=O)[C@@H](NC(=O)C(Cc2ccccc2)NC(=O)/C=C/C=C/C=C/C=C/C=C/C(=O)NC2=C(O)CCC2=O)COC(=O)[C@@H]2C[C@@H](C)CN2C1=O` (stereo partly drawn) (X28-[ξF]SP[NMeA][ξA][Pro(4R-Me)]; ester 2-C), the GI50 in test [1] is > 100 µM (inactive); in [2], > 100 µM (inactive); in [3] it was > 100 µM (inactive); in [4] it was over 100 µM; in test [5], > 100 µM (inactive); in test [6] it was > 100 µM (inactive). The GI50 in [7], in test [8], in [9], in [10], in test [12] and in test [13] was > 100 µM (inactive) in each case. Also, the GI50 in [14], in [15], in [16], in test [17], in [18] and in test [19] was > 100 µM (inactive) in each case. Also, in test [20], the GI50 was > 100 µM (inactive).
`CC1(C)CC[C@]2(C(=O)O)CC[C@]3(C)C(=CC[C@@H]4[C@@]5(C)CC[C@H](OC6OC(CO)C(O)C(O)C6O)C(C)(C)[C@@H]5CC[C@]43C)[C@@H]2C1` (stereo partly drawn): the GI50 in [1] was 1.8 µM (inactive); in test [2], 1.98 µM (inactive); in test [3], 1.59 µM (inactive); in [4] it was 2.75 µM; in test [5], 1.68 µM (inactive); in test [6], 1.62 µM (inactive). Moreover, the GI50 is 2.26 µM (inactive) in [7]; 1.42 µM (inactive) in [8]; 1.66 µM (inactive) in [9]; 1.86 µM (inactive) in [10]; 1.85 µM (inactive) in test [11]; 1.99 µM (inactive) in [12]. Also, the GI50 was 7.89 µM (inactive) in test [13]; 1.61 µM (inactive) in [14]; 1.9 µM (inactive) in test [15]; 1.6 µM (inactive) in test [16]; 1.78 µM (inactive) in test [17]; 2.12 µM (inactive) in [18]. For the same compound, the values for the GI50 in [19] and in [20] were 1.69 µM (inactive) and 1.82 µM (inactive), respectively.
Turning to `Cc1ccc(S(=O)(=O)N(CC(O)COc2ccccc2)c2c(F)cccc2F)cc1` (stereo not drawn), the GI50 in test [1] was 14.7 µM (inactive); in test [2], 24.9 µM (inactive); in test [3], 21.1 µM (inactive); in test [4], 16.1 µM; in test [5] it was 0.114 µM (active); in test [6] it was 17.4 µM (inactive). Besides, the GI50 was 20 µM (inactive) in test [7]; 37.3 µM (inactive) in [8]; 17.9 µM (inactive) in test [9]; 15.8 µM (inactive) in test [10]; 28.3 µM (inactive) in test [11]; 18.5 µM (inactive) in test [12]. Moreover, the GI50 is 17.5 µM (inactive) in [13]; 13.2 µM (inactive) in test [14]; 38 µM (inactive) in [15]; 14.3 µM (inactive) in test [16]; 29.2 µM (inactive) in test [17]; 18.9 µM (inactive) in test [18]. Also, the values for the GI50 in test [19] and in test [20] were 21.8 µM (inactive) and 14.8 µM (inactive), respectively.
Take `O=C1CN(c2ccccc2)Cc2nc(Cl)ccc2N1`: the GI50 in [1] is > 100 µM (inactive); in [2], > 100 µM (inactive); in test [3] it was > 100 µM (inactive); in [4], over 100 µM; in test [5], 57.4 µM (inactive); in test [6] it was > 100 µM (inactive). Further, the GI50 in test [7] is 61.9 µM (inactive); in test [8] it was > 100 µM (inactive); in test [9], > 100 µM (inactive); in test [10], > 100 µM (inactive); in test [11], > 100 µM (inactive); in test [13], 94 µM (inactive). For the same compound, the GI50 in test [14] is > 100 µM (inactive); in test [15], > 100 µM (inactive); in test [16], 79.4 µM (inactive); in test [17], > 100 µM (inactive); in [18], 40.4 µM (inactive); in test [19] it was > 100 µM (inactive). Also, the GI50 in [20] was 95.5 µM (inactive).
